Laboratory results taken from patent publication US20230278987A1, “Antimicrobial Compounds and Methods” (Curza Global, LLC, priority 2019, published 2023).
Values after ≈ are worked out from the molar mass of the structure shown. Structures can show the parent of a compound that is named as a salt. Where two headings read alike, the source gives them in different places.

How the values were obtained:
[1] = test system: S.aureus (Sa); experiment: Broth microdilution MIC against S.aureus (Sa); assay type: cell-based; settings: Staphylococcus aureus, read-out: Sa + bicarb 25 (MIC)
Method: (§1) A certified BSL-2 laboratory was used for testing. Compounds were evaluated using the broth microdilution minimum inhibitory concentration (MIC) and minimum bactericidal concentration (MBC) assays defined by Clinical and Laboratory Standards Institute (CLSI) in the M26-A guideline against S.aureus (Sa), E.coli (Ec), K.pneumoniae (Kp), A.baumannii (Ab), E.faecalis (Ef) and P.aeruginosa (Pa).
(§2) MICs were determined using the Clinical Laboratory and Standards Institute (CLSI) Broth Microdilution Method with slight modification. Clinical and Laboratory Standards Institute (2012). “Methods for dilution antimicrobial susceptibility tests for bacteria that grow aerobically; approved standard, 9th ed. M07-A9. Clinical and Laboratory Standards Institute, Wayne, PA.” Serial two-fold dilutions of compounds are prepared in sterile clear roundbottom 96-well plates.
(§3) To prepare microdilution trays, two-fold dilutions of antimicrobial agent are prepared in growth medium: Cation-Adjusted Mueller-Hinton Broth (CAMHB), or CAMHB supplemented with sodium bicarbonate (6.25 or 25 mM final concentration prepared from a 1.0 M stock solution) or CAMHB supplemented with heat inactivated human serum (Fisher Cat. # BP2657100) 0-50% by adding 200 µL of the highest concentration to be tested (64 µg/mL, for example) in row A, mixing and transferring 100 µL from row A to 100 µL growth medium in row B, then repeating the mixing and transferring through row H of the 96-well plate, discarding the excess 100 µL remaining. This slight modification to the CLSI protocol enables evaluation of MICs for 3 compounds per plate in triplicate, albeit with only 8 compound dilutions (CLSI protocol enables 2 compounds in triplicate with 10 dilutions). Bacterial suspensions are added to a final concentration of 5 × 10^4 CFU/well by adding 5 µL of a 1:10 dilution of a 0.5 McFarland suspension (1 × 10^8 CFU/mL) for each bacterium evaluated. Bacterial suspensions were prepared using the growth method described by CLSI. Well-isolated colonies (3-5 from an agar plate) were selected using a sterile loop and used to inoculate a tube containing 4 mL of CAMHB. The cultures are incubated at 35 ± 2° C. until it achieves or exceeds the turbidity of the 0.5 McFarland standard, determined by measuring A600nm (usually two to six hours). When growth exceeds a 0.5 McFarland standard, the turbidity is adjusted with broth to be equivalent to a 0.5 McFarland standard.

[2] = test system: E.coli (Ec); experiment: Broth microdilution MIC against E.coli (Ec); assay type: cell-based; settings: for MIC: Escherichia coli
Method: as §1, §2, §3

[3] = test system: P.aeruginosa (Pa); experiment: Broth microdilution MIC against P.aeruginosa (Pa); assay type: cell-based; settings: for MIC: Pseudomonas aeruginosa, read-out: Pa +bicarb 25 (MIC)
Method: as §1, §2, §3

[4] = test system: A.baumannii (Ab); experiment: Broth microdilution MIC against A.baumannii (Ab); assay type: cell-based; settings: for MIC: Acinetobacter baumannii, read-out: Ab +bicarb 25 (MIC)
Method: as §1, §2, §3

[5] = test system: E.faecalis (Ef); experiment: Broth microdilution MIC against E.faecalis (Ef); assay type: cell-based; settings: Enterococcus faecalis, read-out: Ef +bicarb 25 (MIC)
Method: as §1, §2, §3

[6] = test system: E.coli S30 extract (bacterial protein synthesis); experiment: E.coli S30 extract: inhibition of bacterial protein synthesis (luciferase); assay type: biochemical; settings: 37° C. for 1 hour
Method: E.coli S30 extract: Inhibition of bacterial protein synthesis was determined using the E.coli S30 Extract System for Circular DNA (Promega catalog #L-2010) and Luciferase Assay Reagent (Promega catalog #E1500) with slight modifications to a published protocol. Fyfe, C., Sutcliffe, J.A. and Grossman, T.H. (2012) “Development and characterization of a Pseudomonas aeruginosa in vitro coupled transcription-translation assay system for evaluation of translation inhibitors” J. Microbiol. Methods 90(3), 256-261.
Compounds were serial diluted in 0.5 mL microcentrifuge tubes by mixing and transferring 50 µL from the highest concentration to 50 µL of water, mixing and transferring 50 µL of this 2-fold dilution to 50 µL of water. This mixing and transferring was repeated so that there are a total of 8 tubes with serial dilutions of compound at 10× the desired screening concentration that are ultimately diluted to 1× by the addition of S30 luciferase synthesis mixture. Serial dilutions of compounds were added (2 µL) to wells in a black round bottom 96-well plate. Water (2 µL) was used as a “no inhibitor” control in 4 wells/plate. No DNA control reaction mixture (20 µL; see below) was used as a control in 4 wells/plate for background luminescence. S30 luciferase synthesis mixture (18 µL; see below) was added to wells with compounds or water mixture and incubated at 37° C. for 1 hour. Reactions were stopped by transferring to 4° C. refrigerator for 5 minutes then 25 µL of luciferase activity mix was added. Luminescence was measured using a BioTek Synergy HTX plate reader. % Inhibition was determined relative to no inhibitor controls.
S30 luciferase synthesis mixture: • 445 µL S30 extract, circular • 712 µL S30 Premix without amino acids • 4.45 µL pBESTluc™ DNA (1 µg/ µL) • 78 µL complete amino acid mixture • 267 µL water
No DNA control: • 20 µL S30 extract, circular • 32 µL S30 Premix without amino acids • 7 µL complete amino acid mixture • 21 µL water

[7] = molecular target: Rabbit Reticulocyte Lysate (eukaryotic protein synthesis); experiment: Rabbit Reticulocyte Lysate: inhibition of eukaryotic protein synthesis (luciferase); assay type: biochemical; settings: 30° C. for 90 minutes, read-out: retic. IC50
Method: Inhibition of eukaryotic protein synthesis was determined using the Rabbit Reticulocyte Lysate System, Nuclease-Treated from Promega (catalog #L-4960) with slight modifications to the manufacturer’s protocol. Compounds were serial diluted in 0.5 mL microcentrifuge tubes by mixing and transferring 50 µL from the highest concentration to 50 µL of water, mixing and transferring 50 µL of this 2-fold dilution to 50 µL of water. This mixing and transferring was repeated so that there are a total of 8 tubes with serial dilutions of compound at 10× the desired screening concentration that are ultimately diluted to 1× by the addition of rabbit reticulocyte luciferase synthesis mixture. Serial dilutions of compounds were added (2.5 µL) to wells in a black round bottom 96-well plate. Water (2.5 µL) was used as a “no inhibitor” control in 4 wells/plate. No RNA control reaction mixture (2 µL; see below) was used as a control in 4 wells/plate for background luminescence. Rabbit reticulocyte luciferase synthesis mixture (22.5 µL; see below) was added to wells with compounds or water mixture and incubated at 30° C. for 90 minutes. Luciferase assay reagent (25 µL) was added with luminescence measured using a BioTek Synergy HTX plate reader. % Inhibition was determined relative to no inhibitor controls.
Rabbit reticulocyte luciferase synthesis mixture: • 1,000 µL rabbit reticulocyte lysate • 5.7 µL Luciferase Control RNA (1 µg/ µL) • 26 µL complete amino acid mixture • 395 µL water
No RNA Control • 70 µL rabbit reticulocyte lysate • 2 µL complete amino acid mixture • 28 µL water

[8] = CAMHB supplemented with sodium bicarbonate 25 mM
[9] = CAMHB supplemented with sodium bicarbonate 25 mM, read-out: E.coli + bicarb 25 (MIC)
[10] = read-out: E.coli + bicarb 25 (MIC)

SMILES	MIC [1, 8]	MIC [2, 9]	MIC [3, 8]	MIC [4, 8]	MIC [5, 8]	IC50 [6]	IC50 [7]	MIC [1]	E.coli + bicarb 25 (MIC) [2, 8]	MIC ([2]; read-out: E. coli + bicarb 6.25 (MIC))	Pa +bicarb 25 (MIC) [3, 8]	Ab +bicarb 25 (MIC) [4, 8]	MIC [5]	MIC [2, 10]	MIC [3]	MIC [4]
CC(C)(N)C(=O)N1CCN(C(=O)Nc2ccn(-c3ccc4c(c3)CCC(N[C@H]3CC[C@H](N)CC3)C4)c(=O)n2)CC1 (stereo partly drawn) [Compound 7]	< 8 µg/mL	< 8 µg/mL	> 32 µg/mL	> 32 µg/mL	< 8 µg/mL	< 500 nM	≥ 1000 nM	–	–	–	–	–	–	–	–	–
CC(C)(N)C(=O)N1CCN(C(=O)Nc2ccn(-c3ccc4c(c3)CCC(NC3CC5(CC(N)C5)C3)C4)c(=O)n2)CC1 (stereo not drawn) [Compound 8]	< 8 µg/mL	< 8 µg/mL	8 to 32 µg/mL (≈ 14.2 to 56.9 µM)	8 to 32 µg/mL (≈ 14.2 to 56.9 µM)	< 8 µg/mL	< 500 nM	≥ 1000 nM	–	–	–	–	–	–	–	–	–
CC(C)(N)C(=O)N1CCN(C(=O)Nc2ccn(-c3ccc4c(c3)CCC(N[C@H]3CC[C@H](N)C3)C4)c(=O)n2)CC1 (stereo partly drawn) [Compound 9, 4-(2-amino-2-methylpropanoyl)-N-(1-(6-(((1S,3S)-3-aminocyclopentyl)amino)-5,6,7,8-tetrahydronaphthalen-2-yl)-2-oxo-1,2-dihydropyrimidin-4-yl)piperazine-1-carboxamide hydrochloride salt]	–	–	–	–	–	< 500 nM	≥ 1000 nM	< 8 µg/mL	+++ (An MIC value (µg/mL) that is less than 8 µg/mL)	< 8 µg/mL	+ (An MIC value (µg/mL) that is 32 µg/mL or greater)	+ (An MIC value (µg/mL) that is 32 µg/mL or greater)	< 8 µg/mL	–	–	–
CN(C1CCc2cc(-n3ccc(NC(=O)N4CCN(C(=O)C(C)(C)N)CC4)nc3=O)ccc2C1)C1CC2(CC(N)C2)C1 (stereo not drawn) [Compound 11]	< 8 µg/mL	< 8 µg/mL	> 32 µg/mL	> 32 µg/mL	< 8 µg/mL	500 to 1000 nM	≥ 1000 nM	–	–	–	–	–	–	–	–	–
CC(C)(N)C(=O)N1CCN(C(=O)Nc2ccn(-c3ccc4c(c3)OCC(N3C[C@@H]5[C@@H](CN)[C@@H]5C3)C4)c(=O)n2)CC1 (stereo partly drawn) [Compound 12, exo-4-(2-amino-2-methylpropanoyl)-N-(1-(3-(-6-(aminomethyl)-3-azabicyclo[3.1.0]hexan-3-yl)chroman-7-yl)-2-oxo-1,2-dihydropyrimidin-4-yl)piperazine-1-carboxamide hydrochloride salt]	8 to 32 µg/mL	< 8 µg/mL	> 32 µg/mL	> 32 µg/mL	> 32 µg/mL	≥ 1000 nM	≥ 1000 nM	–	–	–	–	–	–	–	–	–
CC(C)(N)C(=O)N1CCN(C(=O)Nc2ccn(-c3ccc4c(c3)OCC(N3C[C@@H]5[C@@H](N)[C@@H]5C3)C4)c(=O)n2)CC1 (stereo partly drawn) [Compound 13, Hydrochloride Salt]	8 to 32 µg/mL	8 to 32 µg/mL	8 to 32 µg/mL	8 to 32 µg/mL	8 to 32 µg/mL	≥ 1000 nM	≥ 1000 nM	–	–	–	–	–	–	–	–	–
CC(C)(N)C(=O)N1CCN(C(=O)Nc2ccn(-c3ccc4c(c3)OCC(N3CC[C@@H](CN)C3)C4)c(=O)n2)CC1 (stereo partly drawn) [Compound 14]	< 8 µg/mL	< 8 µg/mL	8 to 32 µg/mL (≈ 14.9 to 59.4 µM)	8 to 32 µg/mL (≈ 14.9 to 59.4 µM)	8 to 32 µg/mL (≈ 14.9 to 59.4 µM)	≥ 1000 nM	≥ 1000 nM	–	–	–	–	–	–	–	–	–
CN(C1CCc2cc(-n3ccc(NC(=O)N4CCN(C(=O)C(C)(C)N)CC4)nc3=O)ccc2C1)[C@H]1CC[C@H](N)CC1 (stereo partly drawn) [Compound 15, 4-(2-amino-2-methylpropanoyl)-N-(1-(6-(((1r,4r)-4-aminocyclohexyl)(methyl)amino)-5,6,7,8-tetrahydronaphthalen-2-yl)-2-oxo-1,2-dihydropyrimidin-4-yl)piperazine-1-carboxamide hydrochloride salt]	< 8 µg/mL	< 8 µg/mL	8 to 32 µg/mL	8 to 32 µg/mL	< 8 µg/mL	< 500 nM	≥ 1000 nM	–	–	–	–	–	–	–	–	–
CCN(C1CCc2cc(-n3ccc(NC(=O)N4CCN(C(=O)C(C)(C)N)CC4)nc3=O)ccc2C1)[C@H]1CC[C@H](N)CC1 (stereo partly drawn) [Compound 16, 4-(2-Amino-2-methylpropanoyl)-N-(1-(6-(((trans)-4-aminocyclohexyl)(ethyl)amino)-5,6,7,8-tetrahydronaphthalen-2-yl)-2-oxo-1,2-dihydropyrimidin-4-yl)piperazine-1-carboxamide hydrochloride salt]	–	–	–	–	–	< 500 nM	≥ 1000 nM	< 8 µg/mL	–	–	–	–	< 8 µg/mL	< 8 µg/mL	8 to 32 µg/mL	8 to 32 µg/mL
CC(C)(N)C(=O)N1CCN(C(=O)Nc2ccn(-c3ccc4c(c3)CCC(N(CC3CC3)[C@H]3CC[C@H](N)CC3)C4)c(=O)n2)CC1 (stereo partly drawn) [Compound 17, 4-(2-Amino-2-methylpropanoyl)-N-(1-(6-(((trans)-4-aminocyclohexyl)(cyclopropylmethyl)amino)-5,6,7,8-tetrahydronaphthalen-2-yl)-2-oxo-1,2-dihydropyrimidin-4-yl)piperazine-1-carboxamide hydrochloride salt]	–	–	–	–	–	500 to 1000 nM	≥ 1000 nM	< 8 µg/mL	–	–	–	–	< 8 µg/mL	< 8 µg/mL	8 to 32 µg/mL	8 to 32 µg/mL
CC(C)(N)C(=O)N1CCN(C(=O)Nc2ccn(-c3ccc4c(c3)OCC(N3CC[C@H](CN)C3)C4)c(=O)n2)CC1 (stereo partly drawn) [Compound 18]	< 8 µg/mL	< 8 µg/mL	8 to 32 µg/mL (≈ 14.9 to 59.4 µM)	8 to 32 µg/mL (≈ 14.9 to 59.4 µM)	8 to 32 µg/mL (≈ 14.9 to 59.4 µM)	≥ 1000 nM	≥ 1000 nM	–	–	–	–	–	–	–	–	–
